Reference: patent US7189519B2, “Bead-based detection of ligand-GPCR-G protein complexes” (STC.UNM, priority 1998, dated 2007)
Residues, ends and D or L forms follow the SMILES beside them. *: point of attachment. For = O=C*

System: FPR-GFP with Gαβγ on DCNi beads (LR^FG ternary complex)
Experiment: Standard LRG assembly assay with FPR-GFP (R^F) on G protein beads, flow cytometry
Format: biochemical, human
Conditions: for EC50: standard assembly with 30 nM R^F, three experiments, read-out: EC50 for LRG formation
Description: Standard LRG Assembly Assay. […] Each mixture was mixed by pipetting to ensure a uniform starting suspension of the beads in 96 V-well plates (Costar), and then mixed at low speed on a vortex mixer at 7° for two hours. The 10 μl assays were individually brought to 200 μl with 0.1% dodecyl maltoside in buffer A in 12×75 mm tubes for flow cytometric measurement of fluorescence of the beads. LRG assembly was defined as the difference between fluorescence without GTPγS and that with GTPγS. All determinations were done in duplicate.

## CSCC[C@H](NC=O)C(=O)N[C@@H](CC(C)C)C(=O)N[C@@H](Cc1ccccc1)C(=O)N[C@@H](Cc1ccccc1)C(=O)O [fMLFF] (For-MLFF-OH; C-terminus assumed)
  EC50: 27 nM

## CSCC[C@H](NC=O)C(=O)N[C@@H](CC(C)C)C(=O)O [fML] (For-Met-Leu-OH; C-terminus assumed)
Near the limit of solubility of fML
  calculated maximal assembly, of the LRG assembly of the longer peptides: 78+/−3%
  EC50: 5300 nM
